According to patent publication US20080260644A1, “CHLORIDE TRANSPORT UPREGULATION FOR THE TREATMENT OF TRAUMATIC BRAIN INJURY” (priority 2005, published 2008):

Legend:
[1] = tested on: dentate granule cells; experiment: Gramicidin perforated patch recording of the membrane potential response to GABA in dentate granule cells in brain slices; format: cell-based, mouse
Protocol: Brain slices were prepared as previously reported (Witgen et al. (2005) Neuroscience, 133:1-15). Perforated patch recordings were conducted at room temperature from visually identified DG neurons using infrared differential interference contrast video microscopy (Stuart et al. (1993) Pflugers Arch., 423:511-8). Cells were voltage clamped at −60 mV, and signals were recorded and amplified with Axopatch 200 (Axon instruments, Foster city, CA), filtered at 2 kHz, digitized, and stored on a PC microcomputer for off line analysis. Electrodes were pulled to a resistance between 6 and 8 MΩ when filled with an internal solution composed of in (mM): 100 KCl, 10 Hepes, pH 7.4 (KOH), on a two stage puller (Sutter instruments, Novato, Calif.). Gramicidin (Sigma, St. Louis) was dissolved in dimethyllsulfuxide (DMSO, Sigma) (1-2 mg/ml) then diluted in the pipette filling solution (1:1000). Progress of membrane patch perforation was evaluated by following the decrease in access resistance (Ra) and recordings were begun once Ra had stabilized ([…]). Current-voltage (IV) relationships were generated using a voltage ramp (−110 to +40 ata rate of 107 mV/ms) in the absence and presence of agonist (GABA, 100 μM, applied 125 ms, 40-60 PSI using a Picospritzer II, General Valve Corporation, Fairfield, N.J.). For chloride fluorescence experiments, the internal solution was composed of (in mM) Kgluconate, 145; MgCl2, 2; BAPTA, 0.1; KCl, 2.5; NaCl, 2.5; HEPES, 10; GTP-Tris, 0.5; Mg-ATP, 2; pH 7.4 (KOH; Vhold=0 mV). For low K^+ experiments, KCl concentration was reduced from 3 to 1 mM while the concentration of NaCl was increased to maintain tonicity.
In order to investigate the functional consequences of reduced KCC2 expression in DG from injured animals, gramacidin perforated patch recordings were performed in dentate granule cells in brain slices derived from sham and FPI animals. Current-voltage (1-V) relationships were created using a voltage ramp that stepped the membrane voltage from a holding potential of −60 mV to −110 mV for 200 ms and then ramped the voltage from −110 to +40 mV at a rate of 107 mV/msec. I-V relationships were plotted by subtracting ramp currents recorded in control solution (aCSF) from currents recorded in the presence of ionophoresed agonist (GABA 100 μm) in brain slices from both sham (FIG. 2A) and FPI (FIG. 2B) animals. […] Mean EGABA values were −72±4.3 (n=7) in sham slices and −51±4.0 mV (n=16) in FPI slices. To ensure that the perforated patch configuration remained intact during the experiment, in several dentate granule cells (recorded in slices from both sham and injured animals) the patch was subsequently ruptured to enter into the whole cell configuration. […]

[2] = tested on: dentate gyrus; experiment: Dentate gyrus throughput index (TI), voltage sensitive dye fluorescence in hippocampal slices; format: cell-based, mouse
From the text: Slices were stimulated in the perforant pathway with one theta burst stimulation (TBS) (5 pulses of 50 μA at 100 Hz). Circles (kernels) represent average fluorescent signals in the DG and hilus respectively. FIG. 5B is a graph of the percent throughput of sham and injured (LFPI) mice.
Normal hippocampal function is directly determined by a balance between neuronal excitation and inhibition. Within the hippocampus there are three interconnected subregions referred to collectively as the ‘Trisynaptic Circuit.’ This circuit consists of the dentate gyrus (DG), area CA3, and area CA1, each having distinct physiological roles. The DG “filters” out aberrant or excessive input to the hippocampus and limits this activity from propagating further along the hippocampal circuit. […]
It is believed that the DG acts as a filter because it is extraordinarily resistant to the generation of synchronized bursting characteristic of epileptic seizures. […] Making use of fluorescent voltage sensitive dyes as a measure of hippocampal neuronal activity, a straightforward relationship has been devised in order to quantify the efficacy of dentate gyrus filtering capacity. “Throughput Index” (TI) is defined as the amount of fluorescence in the hilus divided by the fluorescence in the upper (suprapyramidal) blade of the dentate gyrus induced by afferent (perforant path) stimulation. […]

NCCCC(=O)O [GABA, gamma-aminobutyric acid]
membrane potential response to iontophoresed GABA ([1]; DG neurons from naïve or sham animals, GABA 100 μM): −14±0.7 mV | membrane potential response to iontophoresed GABA ([1]; DG neurons in slices from injured (FPI) animals): depolarizing response

CCCC(=O)O[C@@H]1[C@@H](C)[C@@]2(O)[C@@H](C=C(CO)C[C@]3(O)C(=O)C(C)=C[C@@H]23)[C@@H]2C(C)(C)[C@]12OC(=O)CCC [PDBu, phorbol 12,13-dibutyrate]
effect on dentate gyrus throughput index (TI) ([2]; slices from brain injured (FPI) animals): significantly (p<0.05) reduces | effect on DG filtering (TI) ([2]; slices from sham animals): does not affect

CCCCNc1cc(C(=O)O)cc(S(N)(=O)=O)c1Oc1ccccc1 [bumetanide]
GABA response in the presence of bumetanide compared to GABA alone ([1]; slices from sham animals, bumetanide 10 μM): 39% | response to focally applied GABA in the presence of bumetanide ([1]; slices from sham animals, bumetanide 10 μM bath applied, n=15): −5±3.1 mV
